The values that follow come from PMC10580383, “Development of Melanocortin 4 Receptor Agonists by Exploiting Animal-Derived Macrocyclic, Disulfide-Rich Peptide Scaffolds” (ACS Pharmacology & Translational Science, 2023).

Read-outs that look alike come from different tables or passages of the source. Where a SMILES comes first, the peptide text is derived from it. Bridges are numbered along the chain shown (N, C = ends). Where no end group is shown, it is not given here. [ ]: non-standard residue; d: D form. pGlu = O=C1CC[C@@H](C(=O)O)N1

The target of assay [1] is T1, mouse melanocortin 4 receptor (MC4R) (Mus musculus, UniProt P56450).
T1 construct: expressed in transfected cells; host or cells: HEK293 / HEK293T, transient transfection
T1 sequence (P56450 whole entry): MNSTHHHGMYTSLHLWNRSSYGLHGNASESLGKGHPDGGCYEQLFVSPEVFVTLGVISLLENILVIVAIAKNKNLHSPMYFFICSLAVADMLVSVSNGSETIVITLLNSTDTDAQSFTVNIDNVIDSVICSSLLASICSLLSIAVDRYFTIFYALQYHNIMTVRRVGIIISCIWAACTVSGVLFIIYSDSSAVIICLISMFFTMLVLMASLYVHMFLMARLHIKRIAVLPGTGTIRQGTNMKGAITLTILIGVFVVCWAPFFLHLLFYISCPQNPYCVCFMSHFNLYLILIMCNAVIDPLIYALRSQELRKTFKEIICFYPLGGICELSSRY
Kind of assay: cAMP second messenger quantification assay (Cisbio HTRF cAMP Gs kit). The assay is classed as cell-based. As for the experimental part: Figure 3 Functional cAMP assay of synthesized peptide analogues targeting MC4R. The accumulation of adenylyl cyclase-catalyzed cAMP of (A) tachylplesin-1-like peptides (Ta1LPs, green), (B) protegrin-4-like peptides ([…], pink), (C) arenicin-3-like peptides (Ar3LPs, orange), and (D) gomesin-like peptides (GoLPs, blue) was measured in HEK293 cells transiently expressing mouse melanocortin 4 receptor (MC4R). […] Data are from three independent experiments and are shown as mean ± SEM.
Assays were performed on cells transiently expressing mouse MC4R-EGFP. BamHI and SacI restriction sites were used to clone mouse MC4R N-terminally into a pEGFP-N1 vector. Peptide ligands were assayed for […] in a 384-well format and triplicate according to the Cisbio protocol. Briefly, 5 μL containing 10,000 cells per well was incubated with 5 μL of peptide solutions prepared 2× in 1× stimulation buffer. Following an incubation of peptide ligands at 37 °C for 30 min, d2-labeled cAMP and cryptate-labeled antibody (5 μL of each) were added to the mixture and further incubated for at least 1 h at room temperature. Subsequently, cAMP levels were quantified on a Flexstation 3 (Molecular Devices, San Jose, USA) using homogeneous time-resolved fluorescence resonance energy transfer and the ratio 665/620 nm. Samples were measured in technical triplicates.
Data analysis was performed with GraphPad Prism (GraphPad Software, San Diego). The potency (EC50) and maximum efficacy (Emax) values of peptide ligands were derived from functional data fitted to three- or four-parameter nonlinear regression curves constrained to a bottom of zero.

The test system of assay [2] is mouse MC4R-EGFP. As to the kind of experiment: kinetic BRET β-arrestin-2 recruitment assay (MC4R-EGFP / β-arrestin-2-nanoluciferase). The assay is classed as cell-based. Conditions: ligand 10 μM; HEK293 cells, MC4R-EGFP and β-arrestin-2-NLuc; mean ligand-induced BRET from 312 to 2433 s, NDP-α-MSH set as 100; three independent experiments. As for the experimental part: Considering the physiological relevance of β-arrestins and their critical role in orchestrating MC4R signaling, we measured β-arrestin-2 recruitment in a kinetic bioluminescence resonance energy transfer (BRET) assay. We screened at a ligand concentration of 10 μM in HEK293 cells transiently expressing MC4R coupled to EGFP, and β-arrestin-2 fused to nanoluciferase. […] By contrast, Pr4LP1, Ar3LP1, Ar3LP2, and GoLP1 recruited β-arrestin-2 with greater efficiencies (>130%) than NDP-α-MSH (Figures 4 and S5B,C).
Figure 4 β-Arrestin-2 recruitment of designed MC4R peptide analogues. BRET assay was used to measure the transient interaction of MC4R-EGFP with β-arrestin-2-nanoluciferase (NLuc) in HEK293 cells over time following cell treatment with 10 μM of tachyplesin-1-like peptides (Ta1LPs, green), protegrin-4-like peptides (Pr4LPs, pink), arenicin-3-like peptides (Ar3LPs, orange), and gomesin-like peptides (GoLPs, blue). Relative BRET quantification was determined by calculating the mean value of ligand-induced BRET for each peptide ligand from 312 to 2433 s which was then divided by the mean value of ligand-induced BRET of NDP-α-MSH set as 100. Data are shown as mean ± SEM from three independent experiments.
BRET assay was performed as previously described.[32] Briefly, β-arrestin-2-nano luciferase and mouse MC4R-EGFP were cotransfected in a 1:10 ratio. 16 h post-transfection, 50,000 cells in 100 μL of phenol red-free DMEM with 10% FBS per well were transferred into white clear bottom 96-well plates and incubated overnight. On the day of the assay, cells were incubated for 1 h at 37 °C in phenol red- and serum-free DMEM. Furimazine (diluted 1:50) and peptide ligands (4×) were prepared in Hank’s balanced salt solution (HBSS), respectively. Prior to establishing the baseline and measuring kinetic BRET, furimazine was incubated for 5 min at 37 °C. The ability of peptide ligands to induce β-arrestin-2 recruitment was assessed by measuring light emissions for EGFP (510 nm) and nanoluciferase (460 nm) over 35 min using Flexstation 3 (Molecular Devices, San Jose, USA). The BRET ratio was calculated as emission EGFP (510 nm)/emission nanoluciferase (460 nm). The ligand-induced BRET was calculated by subtracting […].

The target of assay [3] is mouse melanocortin 4 receptor fused to EGFP (mouse) (UniProt P56450).
mouse melanocortin 4 receptor fused to EGFP (mouse), sequence (P56450 whole entry, the tested form may be a part): as the sequence (P56450 whole entry) above
The mark [4] stands for this setting: HEK293, read-out: efficacy cAMP Emax ± SD.

In turn, `CC(C)[C@@H]1NC(=O)[C@H](CCCNC(=N)N)NC(=O)[C@H](Cc2c[nH]c3ccccc23)NC(=O)[C@H](CCCNC(=N)N)NC(=O)[C@@H](Cc2ccccc2)NC(=O)[C@H](Cc2c[nH]cn2)NC(=O)[C@H](Cc2ccc(O)cc2)NC(=O)[C@H](C(C)C)NC(=O)[C@@H]2CSSC[C@H](NC1=O)C(=O)N[C@@H](Cc1ccc(O)cc1)C(=O)N[C@@H](CCCNC(=N)N)C(=O)N[C@@H](CCCNC(=N)N)C(=O)N[C@H](C(=O)N[C@@H](CC(N)=O)C(N)=O)CSSC[C@H](NC(=O)[C@H](Cc1ccccc1)NC(=O)CN)C(=O)N[C@@H](Cc1c[nH]c3ccccc13)C(=O)N[C@@H](Cc1ccc(O)cc1)C(=O)N[C@@H](C(C)C)C(=O)N2` [Ar3LP5] (H-GFCWYVCVYH[dF]RWRVCYRRCN-NH2; disulfide 3-20, 7-16) returned a half-maximal effective concentration (EC50) in assay [1] of 251 nM. Also, the maximal response (Emax) in assay [1] (setting [4]) turned out to be 99 ± 8%. Besides, the “BRET efficacy of β-arrestin-2 recruitment relative to NDP-α-MSH” value in assay [2] is listed as “less than 60%”.

With `CC(C)C[C@@H]1NC(=O)[C@H](CCCNC(=N)N)NC(=O)[C@H](CCCNC(=N)N)NC(=O)[C@@H](NC(=O)[C@@H]2CCC(=O)N2)CSSC[C@@H](C(=O)N[C@@H](CCCNC(=N)N)C(=O)NCC(=O)N[C@@H](CCCNC(=N)N)C(N)=O)NC(=O)[C@H](Cc2ccc(O)cc2)NC(=O)[C@H]([C@@H](C)O)NC(=O)[C@H](C(C)C)NC(=O)[C@@H]2CSSC[C@H](NC1=O)C(=O)N1CCC[C@H]1C(=O)N[C@@H](Cc1c[nH]cn1)C(=O)N[C@H](Cc1ccccc1)C(=O)N[C@@H](Cc1c[nH]cn1)C(=O)N[C@@H](Cc1c[nH]c3ccccc13)C(=O)N2` [GoLP1] ([pGlu]CRRLCPH[dF]HWCVTYCRGR-NH2; disulfide 2-16, 6-12), the midpoint of the response in assay [1], the EC50, lay at 26 nM. Also, the Emax in assay [1] (setting [4]) is 99 ± 3%. Moreover, in assay [2], the “BRET efficacy of β-arrestin-2 recruitment relative to NDP-α-MSH” value was over 130%.

Regarding `CC(C)[C@@H]1NC(=O)[C@H](Cc2c[nH]c3ccccc23)NC(=O)[C@H](Cc2c[nH]cn2)NC(=O)[C@@H](Cc2ccccc2)NC(=O)[C@H](Cc2c[nH]cn2)NC(=O)[C@@H]2CCCN2C(=O)[C@H](Cc2ccc(O)cc2)NC(=O)[C@H](C(C)C)NC(=O)[C@@H]2CSSC[C@H](NC1=O)C(=O)N[C@@H](Cc1ccc(O)cc1)C(=O)N[C@@H](CCCNC(=N)N)C(=O)N[C@@H](CCCNC(=N)N)C(=O)N[C@H](C(=O)N[C@@H](CC(N)=O)C(N)=O)CSSC[C@H](NC(=O)[C@H](Cc1ccccc1)NC(=O)CN)C(=O)N[C@@H](Cc1c[nH]c3ccccc13)C(=O)N[C@@H](Cc1ccc(O)cc1)C(=O)N[C@@H](C(C)C)C(=O)N2` [Ar3LP2] (H-GFCWYVCVYPH[dF]HWVCYRRCN-NH2; disulfide 3-20, 7-16), the concentration giving a half-maximal response (EC50) in assay [1] came to 20 nM. In assay [1] (HEK293; read-out: efficacy cAMP Emax ± SD), the Emax turned out to be 95 ± 10%. In assay [2], the “BRET efficacy of β-arrestin-2 recruitment relative to NDP-α-MSH” value is listed as over 130%.

As to `CC(C)C[C@@H]1NC(=O)[C@H](CCCNC(=N)N)NC(=O)[C@H](CCCNC(=N)N)NC(=O)[C@@H](NC(=O)[C@@H]2CCC(=O)N2)CSSC[C@@H](C(=O)N[C@@H](CCCNC(=N)N)C(=O)NCC(=O)N[C@@H](CCCNC(=N)N)C(N)=O)NC(=O)[C@H](Cc2ccc(O)cc2)NC(=O)[C@H]([C@@H](C)O)NC(=O)[C@H](C(C)C)NC(=O)[C@@H]2CSSC[C@H](NC1=O)C(=O)N[C@@H](Cc1c[nH]cn1)C(=O)N[C@H](Cc1ccccc1)C(=O)N[C@@H](Cc1c[nH]cn1)C(=O)N[C@@H](Cc1c[nH]c3ccccc13)C(=O)N2` [GoLP2] ([pGlu]CRRLCH[dF]HWCVTYCRGR-NH2; disulfide 2-15, 6-11), the midpoint of the response in assay [1], the EC50, lay at 158 nM. For the same molecule, the maximum response (Emax) in assay [1] (setting [4]) came to 116 ± 11%. Further, the “BRET efficacy of β-arrestin-2 recruitment relative to NDP-α-MSH” value in assay [2] was “less than 60%”.

For `CC(C)[C@@H]1NC(=O)[C@H](CCCNC(=N)N)NC(=O)[C@H](Cc2c[nH]c3ccccc23)NC(=O)[C@H](Cc2c[nH]cn2)NC(=O)[C@@H](Cc2ccccc2)NC(=O)[C@H](Cc2c[nH]cn2)NC(=O)[C@H](Cc2ccc(O)cc2)NC(=O)[C@H](C(C)C)NC(=O)[C@@H]2CSSC[C@H](NC1=O)C(=O)N[C@@H](Cc1ccc(O)cc1)C(=O)N[C@@H](CCCNC(=N)N)C(=O)N[C@@H](CCCNC(=N)N)C(=O)N[C@H](C(=O)N[C@@H](CC(N)=O)C(N)=O)CSSC[C@H](NC(=O)[C@H](Cc1ccccc1)NC(=O)CN)C(=O)N[C@@H](Cc1c[nH]c3ccccc13)C(=O)N[C@@H](Cc1ccc(O)cc1)C(=O)N[C@@H](C(C)C)C(=O)N2` [Ar3LP4] (H-GFCWYVCVYH[dF]HWRVCYRRCN-NH2; disulfide 3-20, 7-16), in assay [1], a half-maximal response (EC50) required 794 nM. Besides, in assay [1] (setting [4]), the Emax was 106 ± 14%. The “BRET efficacy of β-arrestin-2 recruitment relative to NDP-α-MSH” value in assay [2] was “less than 60%”.

B1: tachyplesin-1-like peptide 3 (peptide)
peptide: KWCFRVCH[dF]RWCYRRCR-NH2
modifications: disulfide 7-12, 3-16; N-terminus assumed
SMILES: CC(C)[C@@H]1NC(=O)[C@H](CCCNC(=N)N)NC(=O)[C@H](Cc2ccccc2)NC(=O)[C@@H](NC(=O)[C@H](Cc2c[nH]c3ccccc23)NC(=O)[C@@H](N)CCCCN)CSSC[C@@H](C(=O)N[C@@H](CCCNC(=N)N)C(N)=O)NC(=O)[C@H](CCCNC(=N)N)NC(=O)[C@H](CCCNC(=N)N)NC(=O)[C@H](Cc2ccc(O)cc2)NC(=O)[C@@H]2CSSC[C@H](NC1=O)C(=O)N[C@@H](Cc1c[nH]cn1)C(=O)N[C@H](Cc1ccccc1)C(=O)N[C@@H](CCCNC(=N)N)C(=O)N[C@@H](Cc1c[nH]c3ccccc13)C(=O)N2
In assay [3], B1 registered a cAMP accumulation (Cisbio HTRF) in HEK293 cells transiently expressing mouse MC4R-EGFP: EC50 of 17 nM and a cAMP accumulation (Cisbio HTRF) in HEK293 cells transiently expressing mouse MC4R-EGFP: Emax (normalised to NDP-α-MSH) of 98%.

B2: protegrin-4-like peptide 3 (peptide)
peptide: RGGRLCYCH[dF]RWCFCVGR-NH2
modifications: disulfide 8-13, 6-15; N-terminus assumed
SMILES: CC(C)C[C@H](NC(=O)[C@H](CCCNC(=N)N)NC(=O)CNC(=O)CNC(=O)[C@@H](N)CCCNC(=N)N)C(=O)N[C@H]1CSSC[C@@H](C(=O)N[C@H](C(=O)NCC(=O)N[C@@H](CCCNC(=N)N)C(N)=O)C(C)C)NC(=O)[C@H](Cc2ccccc2)NC(=O)[C@@H]2CSSC[C@H](NC(=O)[C@H](Cc3ccc(O)cc3)NC1=O)C(=O)N[C@@H](Cc1c[nH]cn1)C(=O)N[C@H](Cc1ccccc1)C(=O)N[C@@H](CCCNC(=N)N)C(=O)N[C@@H](Cc1c[nH]c3ccccc13)C(=O)N2
For B2, in assay [3], the cAMP accumulation (Cisbio HTRF) in HEK293 cells transiently expressing mouse MC4R-EGFP: EC50 turned out to be 210 nM and the cAMP accumulation (Cisbio HTRF) in HEK293 cells transiently expressing mouse MC4R-EGFP: Emax (normalised to NDP-α-MSH) was determined as 99%.

B3: protegrin-4-like peptide 2 (peptide)
peptide: RGGRLCYCH[dF]HWCFCVGR-NH2
modifications: disulfide 8-13, 6-15; N-terminus assumed
SMILES: CC(C)C[C@H](NC(=O)[C@H](CCCNC(=N)N)NC(=O)CNC(=O)CNC(=O)[C@@H](N)CCCNC(=N)N)C(=O)N[C@H]1CSSC[C@@H](C(=O)N[C@H](C(=O)NCC(=O)N[C@@H](CCCNC(=N)N)C(N)=O)C(C)C)NC(=O)[C@H](Cc2ccccc2)NC(=O)[C@@H]2CSSC[C@H](NC(=O)[C@H](Cc3ccc(O)cc3)NC1=O)C(=O)N[C@@H](Cc1c[nH]cn1)C(=O)N[C@H](Cc1ccccc1)C(=O)N[C@@H](Cc1c[nH]cn1)C(=O)N[C@@H](Cc1c[nH]c3ccccc13)C(=O)N2
In the case of B3, in assay [3], the cAMP accumulation (Cisbio HTRF) in HEK293 cells transiently expressing mouse MC4R-EGFP: EC50 is 150 nM and the cAMP accumulation (Cisbio HTRF) in HEK293 cells transiently expressing mouse MC4R-EGFP: Emax (normalised to NDP-α-MSH) stood at 97%.
